This test relates to BDF1 mice, B16 melanoma ip, median survival T/C. As to the kind of experiment: NCI In Vivo Anticancer Drug Screen. Data for tumor model B16 Melanoma (intraperitoneal) in B6D2F1 (BDF1) mice. To be noted: endpoint: median survival time, schedule: Q01DX009 (ip), higher = longer survival. Summed up:
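Tumor-bearing mice received test compound or vehicle. Survival or tumor size was then measured in both groups. The treated-group figure was divided by the control-group figure.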

Setting [1] is: dose: 50.0 mg/kg/injection, vehicle: saline with Tween-80.
Where [2] appears, read: dose: 100.0 mg/kg/injection, vehicle: saline with Tween-80.
[3] abbreviates: dose: 25.0 mg/kg/injection, vehicle: saline with Tween-80.

The structures appear in SMILES notation. “And” between values parts separate entries of the source, which are not always exact repeats. Equal entries are not always repeated. Toxic doses and inconclusive results are not listed.

As to `CNc1nc2c(N)ncnc2n1C1OC(CO)C(O)C1O` (stereo unspecified), the T/C is 94 % of control (dose: 1.56 mg/kg/injection, vehicle: saline); 90 % of control (dose: 3.12 mg/kg/injection, vehicle: saline); 95 % of control (dose: 6.25 mg/kg/injection, vehicle: saline); 101 % of control (dose: 12.5 mg/kg/injection, vehicle: saline); 101 % of control (dose: 25.0 mg/kg/injection, vehicle: saline).

For the molecule `Cc1ccc(C)c(NC(=O)c2ccccc2C(=O)O)c1`, the T/C (dose: 100.0 mg/kg/injection, vehicle: Klucel (hydroxypropylcellulose) (HPC)) was 94 % of control and the T/C (dose: 200.0 mg/kg/injection, vehicle: Klucel (hydroxypropylcellulose) (HPC)) is 91 % of control.

For `C=C1C(=O)OC2C1CCC(C)C1CCC(=O)OC12C` (stereo unspecified), the T/C is, setting by setting: (dose: 3.13 mg/kg/injection, vehicle: Klucel (hydroxypropylcellulose) (HPC)) 97 % of control; (dose: 6.25 mg/kg/injection, vehicle: Klucel (hydroxypropylcellulose) (HPC)) 103 % of control; (dose: 12.5 mg/kg/injection, vehicle: Klucel (hydroxypropylcellulose) (HPC)) 100 % of control; (dose: 25.0 mg/kg/injection, vehicle: Klucel (hydroxypropylcellulose) (HPC)) 101 % of control.

Take `c1cc(NC2CCCCC2)ccc1CN1CCOCC1`: the T/C is 100 % of control and 104 % of control (dose: 12.5 mg/kg/injection, vehicle: saline + Tween-80 + alcohol); 91 % of control and 102 % of control (dose: 25.0 mg/kg/injection, vehicle: saline + Tween-80 + alcohol); 91 % of control and 97 % of control (dose: 50.0 mg/kg/injection, vehicle: saline + Tween-80 + alcohol); 88 % of control and 97 % of control (dose: 100.0 mg/kg/injection, vehicle: saline + Tween-80 + alcohol); 88 % of control and 89 % of control (dose: 200.0 mg/kg/injection, vehicle: saline + Tween-80 + alcohol); 95 % of control (dose: 400.0 mg/kg/injection, vehicle: saline + Tween-80 + alcohol).

For `O=Cc1cc([N+](=O)[O-])ccc1Cl`, the T/C is, setting by setting: under setting [1], 95 % of control; under setting [2], 92 % of control.

In the case of `O=[N+]([O-])c1ccc(NCc2ccccc2)nc1`, the T/C under setting [3] is 100 % of control; the T/C under setting [1] was 100 % of control; the T/C under setting [2] was 121 % of control; the T/C (dose: 200.0 mg/kg/injection, vehicle: saline with Tween-80) was 105 % of control.

For the molecule `COC(=O)C[C@](O)(CCC(C)(C)O)C(=O)O[C@@H]1C(OC)=C[C@]23CCCN2CCc2cc4c(cc2[C@H]13)OCO4`, the T/C by setting is: (dose: 0.25 mg/kg/injection, vehicle: saline) 152 % of control; (dose: 1.0 mg/kg/injection, vehicle: saline) 150 % of control; (dose: 2.0 mg/kg/injection, vehicle: saline) 102 % of control; (dose: 32.0 micrograms/kg/injection, vehicle: saline) 104 % of control; (dose: 63.0 micrograms/kg/injection, vehicle: saline) 109 % of control; (dose: 125.0 micrograms/kg/injection, vehicle: saline) 113 % of control.

`C/C=C/CNc1ccc(C)cc1`: the T/C by setting is: under setting [3], 102 % of control; under setting [1], 102 % of control; under setting [2], 92 % of control.

Turning to `O=C1C(NCCO)=C(N2CC2)C(=O)C(NCCO)=C1N1CC1`, the T/C by setting is: (dose: 0.19 mg/kg/injection, vehicle: saline) 165 % of control and 202 % of control; (dose: 0.37 mg/kg/injection, vehicle: saline) 161 % of control; (dose: 0.38 mg/kg/injection, vehicle: saline) 191 % of control and 236 % of control; (dose: 0.75 mg/kg/injection, vehicle: saline) 221 % of control.

The record behind these values is PubChem BioAssay AID192 (DTP/NCI, 2004).
